Measured values: article PMC9995496, “A screen for MeCP2-TBL1 interaction inhibitors using a luminescence-based assay” (Scientific Reports, 2023)

Molecular target: T1, MeCP2-TBL1 interaction (MeCP2-SmBiT / TBL1-LgBiT) (Mus musculus, UniProt Q9QXE7)
T1 construct: expressed in transfected cells; crude lysate used as a cell-free assay
T1 sequence (Q9QXE7 166-527): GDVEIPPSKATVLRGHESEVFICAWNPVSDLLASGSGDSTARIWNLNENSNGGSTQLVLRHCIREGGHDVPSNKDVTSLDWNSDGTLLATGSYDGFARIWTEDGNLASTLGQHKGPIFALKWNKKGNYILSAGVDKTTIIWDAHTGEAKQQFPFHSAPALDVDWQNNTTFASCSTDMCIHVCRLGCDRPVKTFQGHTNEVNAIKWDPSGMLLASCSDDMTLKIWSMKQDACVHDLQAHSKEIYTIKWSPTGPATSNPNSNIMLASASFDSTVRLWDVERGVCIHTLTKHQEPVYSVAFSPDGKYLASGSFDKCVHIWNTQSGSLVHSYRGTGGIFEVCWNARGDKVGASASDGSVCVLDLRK
Experiment: MeCP2-TBL1 NanoLuc luciferase complementation assay (cell-free, extracts of transfected HEK293 cells)
Assay type: binding, human
Excerpt: To facilitate the discovery of inhibitors of the interaction between MeCP2 and TBL1/TBLR1, we set out to devise a simple and scalable biochemical assay for measuring the interaction between these two proteins. We initially explored the possibility of screening compound libraries using a previously established fluorescence polarization assay that depends on purified recombinant TBL1/TBLR1[26]. […] The resulting luminescence signal depends on the affinity between the two interacting proteins of interest (Fig. 1A). This method was originally developed to allow for the interrogation of protein–protein interactions in vivo. However, in order to facilitate large scale screening of chemical libraries, we adapted the assay for use as a cell-free system.
We fused the large N-terminal fragment of NanoLuc (LgBiT) to the C-terminus of the WD repeat domains of both TBL1 and TBLR1, and the small C-terminal fragment of NanoLuc (SmBiT) to the C-terminus of the C-terminal half of MeCP2 (Fig. 1B and C). This region of MeCP2 contains the NID (NCoR interaction domain)—the motif in MeCP2 that binds to TBL1/TBLR1.
The AgeI-NotI restriction fragment (encoding EGFP) was then replaced with a codon optimized SmBiT sequence to yield the MeCP2-SmBiT expression plasmid. The TBL1-LgBiT expression vector was derived from a TBL1-mCherry plasmid[25] by replacing the AgeI-NotI restriction fragment (encoding mCherry) with a codon optimized LgBiT sequence. SmBiT-PRKACA and LgBiT-PRKAR2A plasmids are commercially available (Promega, N203 and N204).
Cells were harvested after 24 h and cell pellets were stored at − 80 °C.
In the screens described here, the lysate obtained from a single 15 cm plate was used for 2.5 384-well assay plates. NanoLuc substrate (furimazine) (Promega, N1110) was diluted 1000-fold in passive lysis buffer (Promega, E1941) and added 1:1 to the lysate. Screening libraries were purchased from Asinex[40] and ApexBio (FDA-approved Drug Library, L1021). Compounds were dispensed using an Echo acoustic dispenser and tested at a final concentration of 20 µM in a total assay volume of 20 μl in 384-well plate format. DMSO was added to each well at a final concentration of 0.2% (v/v) and wells containing only DMSO were used as negative control. After 30 min incubation at room temperature, luminescence was measured on a Tecan M1000 multi-mode plate reader. Raw luminescence reads from each well on each plate were normalized to the median luminescence signal for that plate. In the ApexBio screen, the scaled and normalized PKA signal for each compound was subtracted from the MeCP2-TBL1 signal for the same compound. After plate normalization the robust SSMD (SSMD*) was calculated as described elsewhere. A threshold of SSMD* ≥ 3 was applied for discerning primary hits.
Assays were performed as described above except instead of a single concentration, a threefold serial dilution ranging from 60 to 0.03 μM was tested in triplicate for each of the compounds. Half-maximal inhibitory concentrations were calculated using global nonlinear regression by fitting the response data sets of all compounds simultaneously with a four-parameter logistic curve of log inhibitor concentration versus normalized luminescence using GraphPad Prism. During fitting, the maximum and minimum curve values were shared between the data sets.

[1] = primary screen of the Asinex library, sheet "Sargen output Asinex library", one well per compound
[2] = primary screen of Asinex library, single well per compound
[3] = primary screen of the Asinex library, sheet "Sargen output Asinex library", one well per compound, Batch Ref. 1

SMILES | Inhibition percent [1] [%] | Inhibition percent [3] [%] | also measured
NC(=O)c1cccc(-c2nccnc2C2CCCN(CCCc3ccccc3)C2)c1 (stereo not shown) [BDD_27892119] | -1.40 | – | –
NC(=O)c1cccc(-c2nccnc2C2CCCN(C(=O)COc3ccc(F)cc3)C2)c1 (stereo not shown) [BDD_27905103] | – | – | Inhibition percent [2]: -2.79
COc1ccc(CCC(=O)N2CCCC(c3cncc(-c4cccc(OC)c4)n3)C2)cc1 (stereo not shown) [BDD_27924033] | – | 11.34 | –
Cc1cc(Nc2cccc(C3CCCN(C(=O)C4CCCCN4C(=O)OC(C)(C)C)C3)n2)[nH]n1 (stereo not shown) [BDD_30366487] | – | 3.82 | –
CNCc1cc(NC)nc(C2CCCN2C(=O)c2cccc(Oc3ccccc3)c2)n1 (stereo not shown) [BDE_23425118] | – | -0.41 | –
CC(=O)N(C)Cc1cc(N(C)C)nc(C2CCCN2C(=O)Cc2ccc3c(c2)CCCC3)n1 (stereo not shown) [BDE_23426204] | -14.24 | – | –
CN(Cc1cc(N(C)C)nc(C2CCCCN2)n1)C(=O)c1ccccc1-c1ccccc1 (stereo not shown) [BDE_23459438] | – | -3.75 | –
Cc1ccc(CC(=O)N2CCCC(c3ncccc3C(=O)NCc3ccccc3)C2)cc1C (stereo not shown) [BDE_24458967] | -0.34 | – | –
Cc1nn(C)cc1C(=O)N1CCCCC1c1ncccc1C(=O)NCc1ccccc1 (stereo not shown) [BDE_24469941] | – | – | Inhibition percent [2]: -0.10
O=C(NCc1ccccc1)c1cccnc1C1CCCCN1CC(=O)N1CCNC1=O (stereo not shown) [BDE_24470675] | – | -2.87 | –
Cc1ccccc1OCCN1C(=O)CCc2c(C)nc(CN(C)C(=O)C3CCCC3)nc21 [BDE_24687458] | – | -1.66 | –
Cc1nnc(N2CCC(C3CC=CCN(Cc4ccc(F)cc4)C3=O)CC2)c2ccccc12 (stereo not shown) [BDE_24723072] | – | -0.22 | –
COCCNC(=O)CN1CCCC1c1nc(C)c2c(n1)N(Cc1ccccc1)C(=O)CC2 (stereo not shown) [BDE_24735834] | – | – | Inhibition percent [2]: -1.63
Cc1nc(C2CCN(C(=O)C3CCCC3)CC2)nc2c1CCC(=O)N2CCc1ccccc1 [BDE_24748773] | – | -0.38 | –
O=C(NCCc1ccc(Cl)cc1)C1(Cc2cc(-c3ccccc3)no2)CCCO1 (stereo not shown) [BDE_24757019] | 8.09 | – | –
CC1CCN(C(=O)CN2CCC(C3CCCCN(CCc4ccccc4)C3=O)CC2)CC1 (stereo not shown) [BDE_25214814] | -2.53 | – | –
Cc1c(C(=O)N2CCC(C3(C)CCCCN(CCc4ccccc4)C3=O)CC2)cnn1C (stereo not shown) [BDE_25215150] | – | -0.77 | –
CC(=O)N1CCc2nc(C3CCCN(C)C3)nc(NCCCc3ccccc3Cl)c2C1 (stereo not shown) [BDE_25356631] | 2.24 | – | –
CC(=O)N1CCC(c2nc3c(c(NCCOc4cccc(C)c4C)n2)CN(C)CC3)CC1 [BDE_25367865] | 1.06 | – | –
CC(=O)N1CCc2nc(C3CCN(C)CC3)nc(NCCCN(C)c3ccccc3)c2C1 [BDE_25368265] | -2.49 | – | –
COCCc1ncc(CN2CCCC2c2cc(Cc3cccc(OC)c3)cc(C)n2)cn1 (stereo not shown) [BDE_25403133] | – | -4.16 | –
COc1ccc(Cc2ccc(C3CCCN3C(=O)CCn3ncc4ccccc43)nc2)cc1 (stereo not shown) [BDE_25650039] | – | 3.10 | –
O=C(Cc1c[nH]c2ccccc12)N1CCC2(CC=CCN(Cc3ccc(F)cc3)C2=O)CC1 [BDE_25848651] | -0.14 | – | –
COCCN1CC=CCC2(CCN(CC(=O)N(Cc3ccccc3)C(C)C)CC2)C1=O [BDE_25851451] | -2.37 | – | –
Nc1nc(-c2ccccc2)nc2nc(C3CCCN(C(=O)COc4ccccc4)C3)ccc12 (stereo not shown) [BDE_26160293] | – | -0.81 | –
Cc1cc(CCCC(=O)N2CCCC2c2cccc(Nc3nncs3)n2)ccc1F (stereo not shown) [BDE_26594959] | – | 1.13 | –
CNc1nc(C2CCCNC2)nc2c1CCN(C(=O)C1(Oc3ccccc3)CCCCC1)C2 (stereo not shown) [BDE_26713143] | – | – | Inhibition percent [2]: -1.93
CN(C)c1ncc(-c2cccc(F)c2)c(C2CCCCN2C(=O)COc2ccccc2)n1 (stereo not shown) [BDE_26725534] | – | 34.22 | –

SMILES | Inhibition percent [1] [%] | Inhibition percent [3] [%] | also measured
COc1cccc(CC(=O)N2CCC(c3nc(N(C)C)ncc3-c3ccccc3F)CC2)c1 [BDE_26728718] | – | 20.50 | –
Cc1nc(C2CCCN2C(=O)c2ccncc2)nc2c1CCC(=O)N2CCc1ccccc1 (stereo not shown) [BDE_26909882] | -1.75 | – | –
O=C(c1ccccn1)N1CCCC1c1cc(CCOc2cccc(C(F)(F)F)c2)[nH]n1 (stereo not shown) [BDE_27113075] | -1.96 | – | –
CN(CCC(=O)N1CCCC1c1cncc(Cc2cccc(Cl)c2)n1)Cc1cccnc1 (stereo not shown) [BDE_27213557] | -2.00 | – | –
O=C(CCCNc1ncccn1)N1CCCC1c1cncc(Cc2cccc(Cl)c2)n1 (stereo not shown) [BDE_27217604] | -3.79 | – | –
Cc1nc(C2CCN(C(=O)c3cccnc3)CC2)nc2c1CCCN2CCc1ccccc1 [BDE_27576245] | – | -0.64 | –
Cc1nc2c(c(Nc3ccccn3)n1)CCN(C(=O)C1CCCCN1C(=O)OC(C)(C)C)C2 (stereo not shown) [BDE_27755327] | – | -1.68 | –
Cc1cc(C2CCCN(Cc3ccc(-c4ccccc4C(=O)O)o3)C2)ccn1 (stereo not shown) [BDE_30686588] | 6.28 | – | –
O=C(O)c1ccccc1-c1ccc(CN2CCCC2c2ccncn2)cc1 (stereo not shown) [BDE_30687637] | – | -2.12 | –
Cc1nccc(C2CCCN2Cc2ccc(-c3ccccc3C(=O)O)cc2)n1 (stereo not shown) [BDE_30687639] | -0.80 | – | –
CNc1cccc(C2CCCN2Cc2ccc(-c3ccccc3C(=O)O)cc2)n1 (stereo not shown) [BDE_30687673] | -2.37 | – | –
O=C(Cn1ncc2ccccc2c1=O)N1CCCCC1c1ncc(Cc2ccccc2F)o1 (stereo not shown) [BDE_33507923] | – | 3.33 | –
COc1cccc(Cc2cnc(C3CCCN(C(=O)Cn4ncc5ccccc5c4=O)C3)o2)c1 (stereo not shown) [BDE_33507930] | – | -1.97 | –
O=C(Cn1ncc2ccccc2c1=O)N1CCCC(c2ncc(Cc3ccc(Cl)cc3)o2)C1 (stereo not shown) [BDE_33507934] | – | 0.79 | –
COc1ccccc1Cc1cnc(C2CCCN(C(=O)c3cc(-c4ccc(F)cc4)no3)C2)o1 (stereo not shown) [BDE_33509516] | – | 6.24 | –
O=C(O)c1ccccc1CN1CCCC(c2ncc(Cc3ccc(Cl)cc3)o2)C1 (stereo not shown) [BDE_33511194] | -2.52 | – | –
COc1ccccc1Cc1cnc(C2CCCN(S(=O)(=O)c3cn(C)nc3C)C2)o1 (stereo not shown) [BDE_33511387] | – | 4.61 | –
COc1ccccc1Cc1cnc(C2CCCN(C(=O)c3ccc(Cc4ccccc4)nc3)C2)o1 (stereo not shown) [BDE_33511644] | – | 3.75 | –
COc1ccccc1Cc1cnc(C2CCCCN2C(=O)Cn2ncc3ccccc3c2=O)o1 (stereo not shown) [BDE_33513118] | – | 1.49 | –
O=C(c1cc(-c2ccccc2F)n[nH]1)N1CCCCC1c1ncc(Cc2ccccc2)o1 (stereo not shown) [BDE_33513466] | – | 6.68 | –
O=C(COc1ncnc2ccccc12)N1CCCCC1c1ncc(Cc2ccc(F)cc2)o1 (stereo not shown) [BDE_33513539] | – | -1.92 | –
O=C(COc1ncnc2ccccc12)N1CCCCC1c1ncc(Cc2cccc(Cl)c2)o1 (stereo not shown) [BDE_33513542] | – | 4.13 | –
COc1cccc(Cc2cnc(C3CCCCN3C(=O)COc3ncnc4ccccc34)o2)c1 (stereo not shown) [BDE_33513545] | 0.39 | – | –
COc1cccc(-c2cc(C(=O)N3CCCCC3c3ncc(Cc4ccccc4OC)o3)[nH]n2)c1 (stereo not shown) [BDE_33513613] | – | 18.16 | –
O=C(NCC(=O)N1CCCCC1c1ncc(Cc2ccc(Cl)cc2)o1)c1cncc(O)c1 (stereo not shown) [BDE_33513655] | – | -11.18 | –
COc1ccc(OC)c(-c2cc(C(=O)N3CCCCC3c3ncc(Cc4ccccc4)o3)[nH]n2)c1 (stereo not shown) [BDE_33513704] | – | 18.69 | –
COc1cccc(-c2cc(C(=O)N3CCCCC3c3ncc(Cc4ccccc4)o3)on2)c1 (stereo not shown) [BDE_33514162] | 7.15 | – | –
